Like-named read-outs stand apart in the source and are kept apart here.
Columns and labels:
HBV = assay: Cell culture assay for anti-HBV activity (2.2.15 cells, HBV DNA in medium by Southern blot); format: cell-based, Hepatitis B virus; settings: for EC50: Hepatitis B virus
Text: We follow the protocol described by Korba and Gerin(Antiviral Res., 1992, 19:55) and Pai et al. (Antimicrobial Agents Chemother., 1996, 40:380) which is used widely in the field. The HepG 2 2.2.15 cells contain a stably integrated HBV genome, the transcript from which serves as a template for viral replication. The cells produce virions which are elaborated into the medium. The production of the virion DNA is monitored by analysis of medium by Southern blotting. Drugs which inhibit viral replication reduce the levels of virion DNA in the medium, relative to controls.
Confluent cells in 24 well tissue culture dishes are treated with test compounds starting at 1 nM and extending logarithmically to 10 μM (1 nM, 3.2, 10 nM, 32, 100 nM, 1 μM, 10 μM […]). Medium is changed […] every 3 days and DNA extracted from the 3, 6, and […] day samples. The virions are concentrated by polyethylene glycol precipitation (equal volume addition of PEG 8000). After cooling on ice the samples are spun and the pellets treated with SDS and Proteinase K followed by Phenol:Chloroform extraction and ethanol precipitation of the DNA. The DNA is analyzed for HBV sequences by Southern hybridization. The probe used for the analysis is a ^32P labeled Eco RI fragment from the HBV clone described by Korba et al. 3TC is used as a positive control compound with known activity against HBV.
System: The most widely used system for the study of anti-HBV agents is the hepatoma cell culture system with the HBV genome. These cells are designated as the 2.2.15 cells, AD38 cells and AD79 cells. The 2.2.15 cells were generated by the transfection of the human hepatoma cells—HepG2 with HBV DNA. (Sells, et al., Proc. Natl. Acad. Sci. USA 84:1005–1009, 1987) HBV viral replication takes place in these cells. The HBV replication can be monitored intracellularly as well as extracellularly in these cells.
Assay for Anti-HBV agents: 2.215 cells are grown in multi-well dishes in RPMI medium supplemented with 4% fetal bovine serum. After 3 to 4 days of growing the cells, they are treated with varying concentrations of the test compound(s). The test compounds are dissolved in DMSO or sterile water. Cultures without the addition of the test compounds serve as controls. The addition of the test compound(s) is repeated at 3-day intervals. The medium is changed and replaced with appropriate concentration of the test compound. At the end of the 9-day treatment period, the culture medium is harvested and processed for viral DNA. The viral DNA thus obtained is analyzed by Southern blot analysis. After the Southern transfer, the blot is subjected to hybridization to an HBV specific probe to detect HBV DNA. The hybriodization is carried out overnight. After the hybridization, free probe is removed by washing of the blots. The specific hybridization is visualized by autoradiography. Inhibition produced by the test compound is calculated with reference to the levels of HBV DNA in the control samples.

HIV-1 = assay: Anti-HIV evaluation in human PBM cells; format: cell-based; settings: for EC50: Human immunodeficiency virus 1, PBMC, HIV-1
Text: (§1) Human PBM cells from healthy donors, seronegative for HIV-1 and HBV, are isolated by a single-step Ficoll-Hypaque discontinuous gradient centrifugation and propagated as described previously (Schinazi et al., Antimicrobial Agents Chemother., 1990, 34:1061; 1992, 36:2423; 1993, 37:875). Compounds are screened for activity against HIV-1 and cytotoxicity by a protocol reported previously reported by Schinazi, et al. The prototype strain of HIV-1LAI obtained from the Centers for Disease Control and Prevention, Atlanta, Ga., is used as the standard virus for the studies in human PBM cells.

[1] = Cytotoxicity in PBM cells; format: cell-based, human; settings: human
Description: (§2) We also perform toxicity assays by measuring the inhibition of uptake of […] dye by treated cells. These assays are done in 96 well plates. After the standard 10 day treatment regimen medium is removed and PBS containing MTS dye added to each well. After a 2 hour incubation the absorbance of the metabolized product is measured at 490 nm.
as §1

[2] = Cytotoxicity in CEM cells; format: cell-based; settings: human
Description: as §2

[3] = Cytotoxicity in Vero cells; format: cell-based; settings: African green monkey
Description: as §2

[4] = Cytotoxicity in HepG2 cells; format: cell-based; settings: human
Description: as §2

| SMILES | EC50 (HBV; read-out: Anti-HBV EC50) | EC50 (HIV-1) | IC50 [1] | IC50 at 10 day [2] | IC50 at 10 day [3] | IC50 at 10 day [4] | EC50 (HBV; read-out: Anti-HBV EC50 (μM)) | Inhibition of HBV replication (in words) (HBV) | Inhibition of HIV replication (in words) (HIV-1) | Antiviral activity (in words) (HBV; virus not named) |
| --- | --- | --- | --- | --- | --- | --- | --- | --- | --- | --- |
| CC1C(CO)OC(n2cc(F)c(N)nc2=O)C1F (stereo not shown) [Compound 21 (Series 2)] | > 10 µM | > 100 µM | > 100 µM | > 100 µM | > 100 µM |  |  |  |  |  |
| Cc1cn(C2OC(CO)C(C)C2F)c(=O)[nH]c1=O (stereo not shown) [Compound 22 (Series 2)] | > 10 µM | > 100 µM | > 100 µM | > 100 µM | > 100 µM |  |  |  |  |  |
| Nc1ncnc2c1ncn2C1OC(CO)C(CO)C1F (stereo not shown) [Compound 23 (Series 2)] | 1.04 µM | 95.4 µM | > 100 µM | > 100 µM | > 100 µM | > 100 µM |  |  |  |  |
| Nc1ccn(C2OC(CO)C(CCO)C2F)c(=O)n1 (stereo not shown) [Compound 24 (Series 2)] | > 10 µM | > 100 µM | > 100 µM | > 100 µM | > 100 µM |  |  |  |  |  |
| Cc1cn(C2CC(CO)=NO2)c(=O)[nH]c1=O (stereo not shown) [Compound 28 (Series 2)] | > 10 µM | > 100 µM | > 100 µM | > 100 µM | > 100 µM |  |  |  |  |  |
| CCOP(=O)(CCC1=NOC(n2cc(C)c(=O)[nH]c2=O)C1)OCC (stereo not shown) [Compound 33 (Series 2)] |  | > 100 µM | > 100 µM | > 100 µM | > 100 µM |  | > 10 µM |  |  |  |
| CN1OC(n2ccc(N)nc2=O)CC1CO (stereo not shown) [Compound 39 (Series 2)] | > 10 µM | > 100 µM | > 100 µM | > 100 µM | > 100 µM |  |  |  |  |  |
| Cc1cn(C2OC(CO)C(N(C)O)[C@@H]2F)c(=O)[nH]c1=O (stereo partly shown) [Compound 55 (Series 2)] | > 10 µM | 68 µM | > 100 µM | > 100 µM | > 100 µM |  |  |  |  |  |
| CN(O)C1C(CO)OC(n2ccc(N)nc2=O)[C@H]1F (stereo partly shown) [Compound 58 (Series 2)] | 0.65 µM | 0.09 µM | 7.4 µM | 40.2 µM | ~106 µM | > 100 µM |  | potent inhibitors | potent inhibitors |  |
| CN(O)C1C(CO)OC(n2ccc(N)nc2=O)C1F (stereo not shown) [Compound 59 (Series 2)] | ≤ 10 µM | 0.49 µM | > 100 µM | 65.3 µM | > 100 µM | > 100 µM |  | potent inhibitors | potent inhibitors |  |
| CN(O)C1C(CO)OC(n2cc(F)c(=O)[nH]c2=O)C1F (stereo not shown) [Compound 60 (Series 2)] | > 10 µM | > 100 µM | > 100 µM | > 100 µM | > 100 µM |  |  |  |  |  |
| CNC1C(CO)OC(n2cc(C)c(=O)[nH]c2=O)C1F (stereo not shown) [Compound 68 (Series 2)] | > 10 µM | > 100 µM | > 100 µM | > 100 µM | > 100 µM |  |  |  |  |  |
| CNC1C(CO)OC(n2ccc(=O)[nH]c2=O)C1F (stereo not shown) [Compound 69 (Series 2)] | > 10 µM | > 100 µM | > 100 µM | > 100 µM | > 100 µM |  |  |  |  |  |
| CNC1C(CO)OC(n2ccc(N)nc2=O)C1F (stereo not shown) [Compound 70 (Series 2)] | ≤ 10 µM | 2.4 µM | > 100 µM | 109 µM | > 100 µM |  |  | potent inhibitors | potent inhibitors |  |
| CCCCN(O)C1C(CO)OC(n2cc(C)c(=O)[nH]c2=O)C1F (stereo not shown) [Compound 71 (Series 2)] | < 10 µM | 81.4 µM | 13 µM | 30.1 µM | 68.5 µM |  |  |  |  | moderate activities |
